Test results as given in the supplement of paper PMC5908809.

Key:
YT (IL-2 2.5 ng/mL) [1] = experiment: drug sensitivity score (DSS) (DSS units); higher = more sensitive; extreme values may be limits of the assay; conditions: 72 h
[2] = system: normal primary NK cells, pool 1 (3 donors) (IL-2 2.5 ng/mL); experiment: as above; conditions: 72 h
DERL-7 (IL-2 2.5 ng/mL) [3] = experiment: as above; conditions: 72 h
[4] = system: normal primary NK cells, pool 3 (3 donors) (IL-2 2.5 ng/mL); experiment: as above; conditions: 72 h
IMC-1 (IL-2 20 ng/mL) [5] = experiment: as above; conditions: 72 h
[6] = system: normal primary NK cells, pool 2 (3 donors) (IL-2 2.5 ng/mL); experiment: as above; conditions: 72 h
KAI3 (IL-2 2.5 ng/mL) [7] = experiment: as above; conditions: 72 h
NK-92 (IL-2 2.5 ng/mL) [8] = experiment: as above; conditions: 72 h
NKL (IL-2 2.5 ng/mL) [9] = experiment: as above; conditions: 72 h
[10] = system: normal primary NK cells, pool 1 (3 donors), resting (IL-2 0 ng/mL); experiment: as above; conditions: 72 h
SNK-6 (IL-2 2.5 ng/mL) [11] = experiment: as above; conditions: 72 h
KHYG-1 (IL-2 2.5 ng/mL) [12] = experiment: as above; conditions: 72 h
NK-YS (IL-2 2.5 ng/mL) [13] = experiment: as above; conditions: 72 h
YT (IL-2 2.5 ng/mL) [14] = experiment: percent inhibition of viability; higher = more inhibition; conditions: 72 h
[15] = system: normal primary NK cells, pool 1 (3 donors) (IL-2 2.5 ng/mL); experiment: as above; conditions: 72 h
DERL-7 (IL-2 2.5 ng/mL) [16] = experiment: as above; conditions: 72 h
[17] = system: normal primary NK cells, pool 3 (3 donors) (IL-2 2.5 ng/mL); experiment: as above; conditions: 72 h
IMC-1 (IL-2 20 ng/mL) [18] = experiment: as above; conditions: 72 h
[19] = system: normal primary NK cells, pool 2 (3 donors) (IL-2 2.5 ng/mL); experiment: as above; conditions: 72 h
KAI3 (IL-2 2.5 ng/mL) [20] = experiment: as above; conditions: 72 h
NK-92 (IL-2 2.5 ng/mL) [21] = experiment: as above; conditions: 72 h
NKL (IL-2 2.5 ng/mL) [22] = experiment: as above; conditions: 72 h
[23] = system: normal primary NK cells, pool 1 (3 donors), resting (IL-2 0 ng/mL); experiment: as above; conditions: 72 h
SNK-6 (IL-2 2.5 ng/mL) [24] = experiment: as above; conditions: 72 h
KHYG-1 (IL-2 2.5 ng/mL) [25] = experiment: as above; conditions: 72 h
NK-YS (IL-2 2.5 ng/mL) [26] = experiment: as above; conditions: 72 h
[27] = system: normal NK cells expanded with K562-aAPC; experiment: as above; conditions: 72 h, IL-2 2.5 ng/mL
Description: (§1)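 Drug sensitivity and resistance testing on K562-aAPC-expanded normal NK cells: 5 concentrations (10-fold steps over a 10,000-fold range), 72 h at 37 °C, viability by CellTiter-Glo normalised to DMSO and benzethonium chloride controls; DSS from the fitted curve.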

[28] = system: normal NK cells expanded with K562-aAPC; experiment: drug sensitivity score (DSS) (DSS units); higher = more sensitive; extreme values may be limits of the assay; conditions: 72 h; IL-2 2.5 ng/mL
Description: as §1

Work on `CC(C)C[C@H](NC(=O)[C@H](Cc1ccccc1)NC(=O)c1cnccn1)B(O)O` [Bortezomib] (max concentration tested 1000 nM) yielded a drug sensitivity score (YT (IL-2 2.5 ng/mL) [1]) of 30.8, a drug sensitivity score [2] of 29.3 and a drug sensitivity score (DERL-7 (IL-2 2.5 ng/mL) [3]) of 33.9. For the same molecule, the drug sensitivity score [4] was 29.5, the drug sensitivity score (IMC-1 (IL-2 20 ng/mL) [5]) was 30.2 and the drug sensitivity score [6] was 29.2. It also gave a drug sensitivity score (KAI3 (IL-2 2.5 ng/mL) [7]) of 30.6, a drug sensitivity score (NK-92 (IL-2 2.5 ng/mL) [8]) of 30.2 and a drug sensitivity score (NKL (IL-2 2.5 ng/mL) [9]) of 30.3. The drug sensitivity score [10] was 26.8, the drug sensitivity score (SNK-6 (IL-2 2.5 ng/mL) [11]) was 32.6 and the drug sensitivity score (KHYG-1 (IL-2 2.5 ng/mL) [12]) was 30.9. For the same molecule, the drug sensitivity score (NK-YS (IL-2 2.5 ng/mL) [13]) was 30.7, the “percent inhibition of viability” value (YT (IL-2 2.5 ng/mL) [14]; 0.1 nM) was -2.41% and the “percent inhibition of viability” value (YT (IL-2 2.5 ng/mL) [14]; 1 nM) was 0.1%. For the same molecule, the “percent inhibition of viability” value (YT (IL-2 2.5 ng/mL) [14]; 10 nM) was 103%, the “percent inhibition of viability” value (YT (IL-2 2.5 ng/mL) [14]; 100 nM) was 107% and the “percent inhibition of viability” value (YT (IL-2 2.5 ng/mL) [14]; 1000 nM) was 101%. The “percent inhibition of viability” value ([15]; 0.1 nM) was -11.7%, the “percent inhibition of viability” value ([15]; 1 nM) was -7.66% and the “percent inhibition of viability” value ([15]; 10 nM) was 97.5%. The “percent inhibition of viability” value ([15]; 100 nM) was 98.1%, the “percent inhibition of viability” value ([15]; 1000 nM) was 98.4% and the “percent inhibition of viability” value (DERL-7 (IL-2 2.5 ng/mL) [16]; 0.1 nM) was -10.9%. For the same molecule, the “percent inhibition of viability” value (DERL-7 (IL-2 2.5 ng/mL) [16]; 1 nM) was 21.2%, the “percent inhibition of viability” value (DERL-7 (IL-2 2.5 ng/mL) [16]; 10 nM) was 101% and the “percent inhibition of viability” value (DERL-7 (IL-2 2.5 ng/mL) [16]; 100 nM) was 101%. For the same molecule, the “percent inhibition of viability” value (DERL-7 (IL-2 2.5 ng/mL) [16]; 1000 nM) was 100%, the “percent inhibition of viability” value ([17]; 0.1 nM) was -3.11% and the “percent inhibition of viability” value ([17]; 1 nM) was -8.2%. The “percent inhibition of viability” value ([17]; 10 nM) was 98.5%, the “percent inhibition of viability” value ([17]; 100 nM) was 98.7% and the “percent inhibition of viability” value ([17]; 1000 nM) was 99.1%. The “percent inhibition of viability” value (IMC-1 (IL-2 20 ng/mL) [18]; 0.1 nM) was -1.29%, the “percent inhibition of viability” value (IMC-1 (IL-2 20 ng/mL) [18]; 1 nM) was -3.94% and the “percent inhibition of viability” value (IMC-1 (IL-2 20 ng/mL) [18]; 10 nM) was 101%. For the same molecule, the “percent inhibition of viability” value (IMC-1 (IL-2 20 ng/mL) [18]; 100 nM) was 101%, the “percent inhibition of viability” value (IMC-1 (IL-2 20 ng/mL) [18]; 1000 nM) was 101% and the “percent inhibition of viability” value ([19]; 0.1 nM) was -2.25%. The “percent inhibition of viability” value ([19]; 1 nM) was 0.14%, the “percent inhibition of viability” value ([19]; 10 nM) was 94.5% and the “percent inhibition of viability” value ([19]; 100 nM) was 95.3%. The “percent inhibition of viability” value ([19]; 1000 nM) was 96.2%, the “percent inhibition of viability” value (KAI3 (IL-2 2.5 ng/mL) [20]; 0.1 nM) was -14.4% and the “percent inhibition of viability” value (KAI3 (IL-2 2.5 ng/mL) [20]; 1 nM) was -0.34%. For the same molecule, the “percent inhibition of viability” value (KAI3 (IL-2 2.5 ng/mL) [20]; 10 nM) was 102%, the “percent inhibition of viability” value (KAI3 (IL-2 2.5 ng/mL) [20]; 100 nM) was 105% and the “percent inhibition of viability” value (KAI3 (IL-2 2.5 ng/mL) [20]; 1000 nM) was 97%. For the same molecule, the “percent inhibition of viability” value (NK-92 (IL-2 2.5 ng/mL) [21]; 0.1 nM) was -4.96%, the “percent inhibition of viability” value (NK-92 (IL-2 2.5 ng/mL) [21]; 1 nM) was -5.77% and the “percent inhibition of viability” value (NK-92 (IL-2 2.5 ng/mL) [21]; 10 nM) was 102%. For the same molecule, the “percent inhibition of viability” value (NK-92 (IL-2 2.5 ng/mL) [21]; 100 nM) was 107%, the “percent inhibition of viability” value (NK-92 (IL-2 2.5 ng/mL) [21]; 1000 nM) was 98.3% and the “percent inhibition of viability” value (NKL (IL-2 2.5 ng/mL) [22]; 0.1 nM) was -12.9%. For the same molecule, the “percent inhibition of viability” value (NKL (IL-2 2.5 ng/mL) [22]; 1 nM) was -8.26%, the “percent inhibition of viability” value (NKL (IL-2 2.5 ng/mL) [22]; 10 nM) was 105% and the “percent inhibition of viability” value (NKL (IL-2 2.5 ng/mL) [22]; 100 nM) was 107%. The “percent inhibition of viability” value (NKL (IL-2 2.5 ng/mL) [22]; 1000 nM) was 98.5%, the “percent inhibition of viability” value ([23]; 0.1 nM) was -34.8% and the “percent inhibition of viability” value ([23]; 1 nM) was -55%. The “percent inhibition of viability” value ([23]; 10 nM) was 91.9%, the “percent inhibition of viability” value ([23]; 100 nM) was 94.3% and the “percent inhibition of viability” value ([23]; 1000 nM) was 94%. For the same molecule, the “percent inhibition of viability” value (SNK-6 (IL-2 2.5 ng/mL) [24]; 0.1 nM) was 21.6%, the “percent inhibition of viability” value (SNK-6 (IL-2 2.5 ng/mL) [24]; 1 nM) was 12.7% and the “percent inhibition of viability” value (SNK-6 (IL-2 2.5 ng/mL) [24]; 10 nM) was 98.5%. The “percent inhibition of viability” value (SNK-6 (IL-2 2.5 ng/mL) [24]; 100 nM) was 101%, the “percent inhibition of viability” value (SNK-6 (IL-2 2.5 ng/mL) [24]; 1000 nM) was 100% and the “percent inhibition of viability” value (KHYG-1 (IL-2 2.5 ng/mL) [25]; 0.1 nM) was -3.11%. The “percent inhibition of viability” value (KHYG-1 (IL-2 2.5 ng/mL) [25]; 1 nM) was -0.47%, the “percent inhibition of viability” value (KHYG-1 (IL-2 2.5 ng/mL) [25]; 10 nM) was 105% and the “percent inhibition of viability” value (KHYG-1 (IL-2 2.5 ng/mL) [25]; 100 nM) was 108%. For the same molecule, the “percent inhibition of viability” value (KHYG-1 (IL-2 2.5 ng/mL) [25]; 1000 nM) was 100%, the “percent inhibition of viability” value (NK-YS (IL-2 2.5 ng/mL) [26]; 0.1 nM) was -5.54% and the “percent inhibition of viability” value (NK-YS (IL-2 2.5 ng/mL) [26]; 1 nM) was -1.32%. For the same molecule, the “percent inhibition of viability” value (NK-YS (IL-2 2.5 ng/mL) [26]; 10 nM) was 104%, the “percent inhibition of viability” value (NK-YS (IL-2 2.5 ng/mL) [26]; 100 nM) was 106% and the “percent inhibition of viability” value (NK-YS (IL-2 2.5 ng/mL) [26]; 1000 nM) was 98.5%. For the same molecule, the “percent inhibition of viability” value ([27]; 0.1 nM) was -2.23%, the “percent inhibition of viability” value ([27]; 1 nM) was 4.9% and the “percent inhibition of viability” value ([27]; 10 nM) was 100%. For the same molecule, the “percent inhibition of viability” value ([27]; 100 nM) was 101%, the “percent inhibition of viability” value ([27]; 1000 nM) was 100% and the drug sensitivity score [28] was 31.2.
